SMILES strings stand for the structures.

In series [1] the target is Cathepsin B (Homo sapiens, UniProt P07858). Nature of the series: Inhibition of human cathepsin B.
The target in series [2] is T1, Cathepsin K (Homo sapiens, UniProt P43235).
T1 sequence (P43235 whole entry): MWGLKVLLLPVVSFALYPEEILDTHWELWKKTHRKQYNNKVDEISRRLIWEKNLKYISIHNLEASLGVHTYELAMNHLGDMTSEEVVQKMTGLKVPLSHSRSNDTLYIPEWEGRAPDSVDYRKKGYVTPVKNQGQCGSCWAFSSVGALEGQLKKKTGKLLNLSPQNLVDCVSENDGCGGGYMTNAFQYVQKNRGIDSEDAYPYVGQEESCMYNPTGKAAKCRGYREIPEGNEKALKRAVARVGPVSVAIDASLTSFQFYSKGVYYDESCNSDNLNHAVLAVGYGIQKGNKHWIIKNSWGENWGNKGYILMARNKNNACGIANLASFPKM
Nature of the series: Inhibition of human cathepsin K.

The nature of series [3]: Inhibition of antigen presentation in mouse B cells. It is filed as functional, cell-based.
Series [4] can be described thus: Half life in Sprague-Dawley rat. It is filed as ADME, organism-based. The conditions noted are these: in vivo.
Series [5] is described as follows: Cmax in Sprague-Dawley rat. It is filed as ADME, organism-based. The conditions noted are these: in vivo.
In series [6] the target is Cathepsin S (Rattus norvegicus, UniProt Q02765). Nature of the series: Inhibition of rat spleen cathepsin S. It is filed as tissue-based.
Sequence of Cathepsin S (Rattus norvegicus, UniProt Q02765) (Q02765 whole entry): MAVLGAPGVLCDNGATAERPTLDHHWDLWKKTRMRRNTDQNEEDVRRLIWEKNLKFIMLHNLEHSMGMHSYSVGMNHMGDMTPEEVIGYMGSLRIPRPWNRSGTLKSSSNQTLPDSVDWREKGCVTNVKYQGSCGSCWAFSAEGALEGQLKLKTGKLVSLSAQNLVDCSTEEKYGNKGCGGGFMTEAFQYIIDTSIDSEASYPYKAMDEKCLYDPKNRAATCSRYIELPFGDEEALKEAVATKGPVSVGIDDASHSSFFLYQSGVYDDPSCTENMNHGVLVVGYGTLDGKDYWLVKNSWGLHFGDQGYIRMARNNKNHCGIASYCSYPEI
Series [7] concerns the target T2, Cathepsin K (Mus musculus, UniProt P55097).
T2 sequence (P55097 whole entry): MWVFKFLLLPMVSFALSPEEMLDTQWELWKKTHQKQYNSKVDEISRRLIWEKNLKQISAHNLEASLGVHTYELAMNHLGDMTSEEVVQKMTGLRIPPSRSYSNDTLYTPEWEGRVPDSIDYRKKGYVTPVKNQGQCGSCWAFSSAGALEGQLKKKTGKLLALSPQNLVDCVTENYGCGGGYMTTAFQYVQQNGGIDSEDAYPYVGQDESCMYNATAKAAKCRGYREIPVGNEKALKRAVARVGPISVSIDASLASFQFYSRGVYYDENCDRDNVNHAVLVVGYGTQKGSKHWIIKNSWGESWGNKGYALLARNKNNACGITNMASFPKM
As to the kind of experiment: Inhibition of mouse recombinant cathepsin K.

Series [8] has as its target Cathepsin S (Homo sapiens, UniProt P25774). Nature of the series: Inhibition of human cathepsin S.
In series [9] the test system is Mus musculus. As to the kind of experiment: AUC (0 to 24 hrs) in C57BL/6 mouse at 5 mg/kg, po. It is filed as ADME, organism-based, Plasma. More on the design: time < 24 hr, dose 5 mg/kg, route oral. The settings on record: in vivo.
Series [10] relates to Mus musculus. Nature of the series: AUC (0 to 24 hrs) in C57BL/6 mouse at 50 mg/kg, po. The series is classed as ADME, organism-based, Plasma. The arrangement: time < 24 hr, dose 50 mg/kg, route oral. The settings on record: in vivo.
Series [11] has as its target Procathepsin L (Homo sapiens, UniProt P07711). As to the kind of experiment: Inhibition of human cathepsin L.
For series [12], the system named is Hepatocyte. As to the kind of experiment: Metabolic stability in rat hepatocytes after 2 hrs. The series is classed as ADME, cell-based.
Series [13] concerns the target Cathepsin B (Rattus norvegicus, UniProt P00787). As to the kind of experiment: Inhibition of rat liver lysosomal cathepsin B.
Series [14] is described as follows: Bioavailability in Sprague-Dawley rat. The series is classed as ADME, organism-based. The settings on record: in vivo.
Series [15] has as its target T3, Procathepsin L (Mus musculus, UniProt P06797).
T3 sequence (P06797 whole entry): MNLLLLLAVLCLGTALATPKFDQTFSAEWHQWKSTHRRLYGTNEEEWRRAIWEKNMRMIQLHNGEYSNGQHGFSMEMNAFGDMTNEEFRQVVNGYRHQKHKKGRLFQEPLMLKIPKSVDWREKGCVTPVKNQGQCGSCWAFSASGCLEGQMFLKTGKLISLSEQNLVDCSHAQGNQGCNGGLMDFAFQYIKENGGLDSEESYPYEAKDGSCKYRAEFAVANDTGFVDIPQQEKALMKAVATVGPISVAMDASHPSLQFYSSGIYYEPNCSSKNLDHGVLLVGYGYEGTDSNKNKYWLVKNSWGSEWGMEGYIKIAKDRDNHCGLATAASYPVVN
Nature of the series: Inhibition of mouse recombinant cathepsin L.

For series [16], the target named is Cathepsin B (Mus musculus, UniProt P10605). Nature of the series: Inhibition of mouse recombinant cathepsin B.
Sequence of Cathepsin B (Mus musculus, UniProt P10605) (P10605 whole entry): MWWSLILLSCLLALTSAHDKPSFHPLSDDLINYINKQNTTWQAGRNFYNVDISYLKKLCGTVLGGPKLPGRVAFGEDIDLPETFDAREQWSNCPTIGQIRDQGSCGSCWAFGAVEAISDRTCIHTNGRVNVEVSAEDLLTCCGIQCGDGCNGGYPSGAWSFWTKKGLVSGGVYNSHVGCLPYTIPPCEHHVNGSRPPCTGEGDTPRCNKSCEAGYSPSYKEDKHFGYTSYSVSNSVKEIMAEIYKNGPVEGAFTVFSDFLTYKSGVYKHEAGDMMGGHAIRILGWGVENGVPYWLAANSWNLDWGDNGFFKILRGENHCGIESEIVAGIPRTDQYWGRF
The target in series [17] is T4, Procathepsin L (Rattus norvegicus, UniProt P07154).
T4 sequence (P07154 whole entry): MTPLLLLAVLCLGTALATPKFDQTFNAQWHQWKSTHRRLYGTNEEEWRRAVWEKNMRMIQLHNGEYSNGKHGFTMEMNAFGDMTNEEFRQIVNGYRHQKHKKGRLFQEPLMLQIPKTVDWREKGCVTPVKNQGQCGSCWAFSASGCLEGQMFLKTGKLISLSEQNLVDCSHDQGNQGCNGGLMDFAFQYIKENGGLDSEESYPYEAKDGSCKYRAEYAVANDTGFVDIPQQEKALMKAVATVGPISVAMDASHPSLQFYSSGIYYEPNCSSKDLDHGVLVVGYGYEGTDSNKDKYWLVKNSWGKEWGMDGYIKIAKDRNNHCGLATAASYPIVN
As to the kind of experiment: Inhibition of rat liver lysosomal cathepsin L.

Series [18] concerns the target Cathepsin S (Mus musculus, UniProt O70370). As to the kind of experiment: Inhibition of mouse recombinant cathepsin S.
The test system of series [19] is Mus musculus. Nature of the series: AUC (0 to 24 hrs) in C57BL/6 mouse assessed as (R)-N-(1-cyanocyclopropyl)-3-(methylsulfonyl)-2-((S)-2,2,2-trifluoro-1-(4-fluorophenyl)ethylamino)propanamide levels at 150 mg/kg, po. It is filed as ADME, organism-based, Plasma. The arrangement: time < 24 hr, dose 150 mg/kg, route oral. The settings on record: in vivo.
Series [20] concerns Mus musculus. Nature of the series: AUC (0 to 24 hrs) in C57BL/6 mouse assessed as (R)-N-(1-cyanocyclopropyl)-3-(methylsulfonyl)-2-((S)-2,2,2-trifluoro-1-(4-fluorophenyl)ethylamino)propanamide levels at 10 mg/kg, po. The series is classed as ADME, organism-based, Plasma. More on the design: time < 24 hr, dose 10 mg/kg, route oral. The conditions noted are these: in vivo.
The species named for series [21] is Mus musculus. As to the kind of experiment: Drug level in C57BL/6 mouse blood at 0.05 w/w %. It is filed as ADME, organism-based. The settings on record: in vivo, read-out: Drug uptake.
Series [22] deals with Mus musculus. As to the kind of experiment: Increase in p10 fragment accumulation in C57BL/6 mouse at 3 mg/kg/day for 5 days relative to control. It is filed as functional.
The species named for series [23] is Mus musculus. As to the kind of experiment: AUC (0 to 24 hrs) in C57BL/6 mouse assessed as (R)-N-(1-cyanocyclopropyl)-3-(methylsulfonyl)-2-((S)-2,2,2-trifluoro-1-(4-fluorophenyl)ethylamino)propanamide levels at 0.01 w/w % after 5 days. The series is classed as ADME, organism-based, Plasma. The arrangement: time < 24 hr. The conditions noted are these: in vivo.

The species named for series [24] is Mus musculus. Nature of the series: Drug level in C57BL/6 mouse blood at 0.25 w/w %. The series is classed as ADME, organism-based. The conditions noted are these: in vivo, read-out: Drug uptake.
The species entered for series [25] is Mus musculus. Nature of the series: AUC (0 to 24 hrs) in C57BL/6 mouse assessed as (R)-N-(1-cyanocyclopropyl)-3-(methylsulfonyl)-2-((S)-2,2,2-trifluoro-1-(4-fluorophenyl)ethylamino)propanamide levels at 0.05 w/w % after 5 days. The series is classed as ADME, organism-based, Plasma. The arrangement: time < 24 hr. The conditions noted are these: in vivo.
The species named for series [26] is Mus musculus. As to the kind of experiment: Drug level in C57BL/6 mouse blood at 0.01 w/w %. The settings on record: in vivo, read-out: Drug uptake. The series is classed as ADME, organism-based.
Series [27] deals with Mus musculus. As to the kind of experiment: AUC (0 to 24 hrs) in C57BL/6 mouse assessed as (R)-N-(1-cyanocyclopropyl)-3-(methylsulfonyl)-2-((S)-2,2,2-trifluoro-1-(4-fluorophenyl)ethylamino)propanamide levels at 50 mg/kg, po. More on the design: time < 24 hr, dose 50 mg/kg, route oral. The conditions noted are these: in vivo. The series is classed as ADME, organism-based, Plasma.

The species entered for series [28] is Mus musculus. Nature of the series: AUC (0 to 24 hrs) in C57BL/6 mouse assessed as (R)-N-(1-cyanocyclopropyl)-3-(methylsulfonyl)-2-((S)-2,2,2-trifluoro-1-(4-fluorophenyl)ethylamino)propanamide levels at 0.25 w/w % after 5 days. It is filed as ADME, organism-based, Plasma. The arrangement: time < 24 hr. The conditions noted are these: in vivo.
Series [29] can be described thus: Cmax in po dosed Sprague-Dawley rat administered in 1:1 inwitor/tween 80 solution. It is filed as ADME, organism-based. More on the design: route oral. The conditions noted are these: in vivo.
Series [30] can be described thus: Bioavailability in po dosed Sprague-Dawley rat administered in 1:1 inwitor/tween 80 solution. It is filed as ADME, organism-based. The conditions noted are these: in vivo.
Series [31] relates to Rattus norvegicus. Nature of the series: Half life in po dosed Sprague-Dawley rat administered in 1:1 inwitor/tween 80 solution. It is filed as ADME, organism-based. The settings on record: in vivo.

Sequence of Cathepsin S (Mus musculus, UniProt O70370) (O70370 whole entry): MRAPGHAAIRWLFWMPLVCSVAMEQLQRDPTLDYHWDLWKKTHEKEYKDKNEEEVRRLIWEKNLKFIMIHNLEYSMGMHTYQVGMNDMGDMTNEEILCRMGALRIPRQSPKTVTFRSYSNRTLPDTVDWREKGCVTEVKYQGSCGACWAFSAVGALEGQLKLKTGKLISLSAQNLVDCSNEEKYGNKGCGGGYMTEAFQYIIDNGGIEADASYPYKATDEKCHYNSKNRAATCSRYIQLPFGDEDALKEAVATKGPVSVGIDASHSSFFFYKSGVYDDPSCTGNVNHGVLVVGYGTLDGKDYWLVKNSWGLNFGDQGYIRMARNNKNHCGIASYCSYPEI
Sequence of Cathepsin B (Rattus norvegicus, UniProt P00787) (P00787 whole entry): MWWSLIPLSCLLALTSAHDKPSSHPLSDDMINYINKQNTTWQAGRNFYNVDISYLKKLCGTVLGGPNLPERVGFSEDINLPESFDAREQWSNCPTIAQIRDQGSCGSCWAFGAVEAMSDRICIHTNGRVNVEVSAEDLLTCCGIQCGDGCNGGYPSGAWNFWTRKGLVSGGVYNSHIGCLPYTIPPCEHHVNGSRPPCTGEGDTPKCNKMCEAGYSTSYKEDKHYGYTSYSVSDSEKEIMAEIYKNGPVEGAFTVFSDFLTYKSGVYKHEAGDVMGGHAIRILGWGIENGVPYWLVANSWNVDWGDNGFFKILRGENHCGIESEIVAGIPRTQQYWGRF
Sequence of Cathepsin S (Homo sapiens, UniProt P25774) (P25774 whole entry): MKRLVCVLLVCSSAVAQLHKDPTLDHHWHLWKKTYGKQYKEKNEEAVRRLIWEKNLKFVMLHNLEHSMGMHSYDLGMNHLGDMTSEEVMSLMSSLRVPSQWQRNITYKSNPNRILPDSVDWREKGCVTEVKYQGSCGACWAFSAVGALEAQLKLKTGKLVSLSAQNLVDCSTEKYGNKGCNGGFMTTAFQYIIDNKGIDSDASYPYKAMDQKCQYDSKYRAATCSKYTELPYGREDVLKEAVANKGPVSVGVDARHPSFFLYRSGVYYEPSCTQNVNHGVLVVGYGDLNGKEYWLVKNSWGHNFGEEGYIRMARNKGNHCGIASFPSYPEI
Sequence of Procathepsin L (Homo sapiens, UniProt P07711) (P07711 whole entry): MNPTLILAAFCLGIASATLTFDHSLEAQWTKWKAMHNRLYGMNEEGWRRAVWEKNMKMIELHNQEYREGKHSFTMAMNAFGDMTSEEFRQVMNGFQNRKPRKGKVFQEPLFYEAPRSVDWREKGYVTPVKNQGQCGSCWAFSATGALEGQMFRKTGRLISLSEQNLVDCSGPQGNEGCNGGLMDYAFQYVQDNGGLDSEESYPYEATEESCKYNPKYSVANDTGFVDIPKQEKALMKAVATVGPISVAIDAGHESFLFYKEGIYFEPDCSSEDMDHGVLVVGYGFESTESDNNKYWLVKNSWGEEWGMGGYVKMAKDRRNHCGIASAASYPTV

The IC50 is the concentration at which inhibition is half-maximal. A word on the half-life: it is how long it takes for the measured level to halve. High values mean slow loss, low ones fast loss. Broadly, the Cmax is the peak of the concentration-time curve. One may read the bioavailability as dose-corrected exposure relative to a reference, in per cent. In the case of `CS(=O)(=O)C[C@H](N[C@@H](c1ccc(F)cc1)C(F)(F)F)C(=O)NC1(C#N)CC1`, the IC50 in series [1] came to 1100 nM; in [2] it was 405 nM; in series [3] it was 44 nM; in series [6] it was 426 nM; in series [7], 1650 nM; in [8] it was 1.8 nM. In addition, the IC50 came to 1010 nM in series [11]; 319 nM in [13]; 3040 nM in [15]; 233 nM in [16]; 3160 nM in series [17]; 0.6 nM in series [18]. For the same compound, in [4], the half-life is 5.2 h. In [5], the highest level (Cmax) was 6300 nM. The AUC in series [9] came out at 43 µM; in [10] it was 111 µM. In addition, the Stability entry in series [12] is recorded as “Stable”. Also, in series [14], the bioavailability amounted to 48%.

Turning to `C[S+]([O-])C[C@H](N[C@@H](c1ccc(F)cc1)C(F)(F)F)C(=O)NC1(C#N)CC1` (stereo partly specified), the IC50 in series [1] was 9720 nM; in series [2], 1120 nM; in series [6] it was more than 10000 nM; in series [7], 5840 nM; in [8], 729 nM; in series [11] it was more than 10000 nM. For the same compound, the IC50 in series [13] was more than 10000 nM; in series [15], more than 10000 nM; in series [16], 6700 nM; in [17], more than 10000 nM; in [18], 96 nM. The AUC in series [19] turned out to be 750 µM; in [20] it was 63 µM; in series [23], 7 µM; in series [25] it was 31 µM; in [27] it was 274 µM; in series [28], 87 µM. The concentration amounted to 6000 nM in [21], 16000 nM in [24] and 1000 nM in series [26]. This compound also returned an Activity in [22] of 24.

Take `N#CC1(NC(=O)[C@H](CS(=O)(=O)c2ccc(Cl)c(Cl)c2)N[C@@H](c2ccc(F)cc2)C(F)(F)F)CC1`: the IC50 in series [1] was 4810 nM; in series [2], 691 nM; in series [8] it was 0.2 nM; in series [11], 41 nM. In [29], this compound yielded a Cmax of 250 nM. For the same compound, the bioavailability in series [30] was 35%. Also, the t1/2 in series [31] amounted to 1.2 h.

With `CS(=O)(=O)C[C@H](N[C@@H](c1ccc(Br)cc1)C(F)(F)F)C(=O)NC1(C#N)CC1`, the 50% inhibitory concentration (IC50) turned out to be 31 nM in [2]; 1050 nM in series [6]; 1030 nM in series [7]; 11 nM in [8]; 66 nM in series [13]; 2220 nM in series [15]. For the same compound, the IC50 in series [16] was determined as 69 nM; in [17], 1280 nM; in series [18], 1.6 nM. The compound also showed a half-life in [4] of 11 h. For the same compound, the highest level in series [5] (Cmax) was 3300 nM. Moreover, the Stability result in [12] is given as “Stable”. The bioavailability in series [14] came out at 40%.

`N#CC1(NC(=O)[C@H](CS(=O)(=O)c2ccc(Cl)c(Cl)c2)N[C@@H](c2ccccc2)C(F)(F)F)CC1`: the IC50 was 8510 nM in series [1]; 314 nM in series [2]; 15 nM in series [6]; 1460 nM in series [7]; 0.2 nM in series [8]; 24 nM in series [11]. Also, the IC50 in series [13] was 5690 nM; in [15], 59 nM; in [16], 3020 nM; in series [17], 48 nM; in series [18], less than 0.2 nM. Also, in [4], the half-life was 1.7 h. Also, the Cmax is 88 nM in series [5] and 660 nM in series [29]. The bioavailability in series [30] came out at 30%; in series [14] it was 9%. This compound yielded a t1/2 in series [31] of 1.7 h.
